Data set [1] addresses T1, stearoyl-CoA desaturase (SCD1) (Mus musculus, UniProt P13516).
T1 construct: Reactions are started by adding 50 μL of microsomes (1.25 mg/mL); from tissue; host or cells: liver microsomes of male ICR outbred mice on a high-carbohydrate, low-fat diet
T1 sequence (P13516 1-355): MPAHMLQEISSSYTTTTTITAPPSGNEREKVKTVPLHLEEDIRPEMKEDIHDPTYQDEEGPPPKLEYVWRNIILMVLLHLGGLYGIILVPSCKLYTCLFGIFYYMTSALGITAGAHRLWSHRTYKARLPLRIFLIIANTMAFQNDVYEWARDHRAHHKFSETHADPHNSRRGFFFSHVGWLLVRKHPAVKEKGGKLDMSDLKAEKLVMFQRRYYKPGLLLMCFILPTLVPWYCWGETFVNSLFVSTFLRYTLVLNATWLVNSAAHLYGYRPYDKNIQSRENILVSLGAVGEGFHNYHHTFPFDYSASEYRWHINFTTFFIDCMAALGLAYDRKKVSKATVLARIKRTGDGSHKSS
The experiment in a line: SCD microsomal assay: release of 3H2O from [9,10-3H]stearoyl-CoA in mouse liver microsomes. It is filed as biochemical. Conditions: 15 min incubation, 25° C. The method, then:
Measuring Stearoyl-CoA Desaturase Inhibition Activity of a Test Compound Using Mouse Liver Microsomes
Livers are immediately rinsed with cold 0.9% NaCl solution, weighed and minced with scissors. All procedures are performed at 4° C. unless specified otherwise. Livers are homogenized in a solution (1/3 w/v) containing 0.25 M sucrose, 62 mM potassium phosphate buffer (pH 7.0), 0.15 M KCl, 15 mM N-acetylcysteine, 5 mM MgCl2, and 0.1 mM EDTA using 4 strokes of a Potter-Elvehjem tissue homogenizer. The homogenate is centrifuged at 10,400×g for 20 min to eliminate mitochondria and cellular debris. The supernatant is filtered through a 3-layer cheesecloth and centrifuged at 105,000×g for 60 min. The microsomal pellet is gently resuspended in the same homogenization solution with a small glass/teflon homogenizer and stored at −70° C. The absence of mitochondrial contamination is enzymatically assessed. The protein concentration is measured using bovine serum albumin as the standard.
Incubation of Mouse Liver Microsomes with Test Compounds:
Desaturase activity is measured as the release of ^3H2O from [9,10-^3H]stearoyl-CoA. Reactions per assay point conditions are as follows: 2 μL 1.5 mM stearoyl-CoA, 0.25 μL 1 mCi/mL ^3H stearoyl CoA, 10 μL 20 mM NADH, 36.75 μL 0.1 M PK buffer (K2HPO4/NaH2PO4, pH 7.2). The test compound or control solution is added in a 1 μL volume. […] The plates are mixed and after 15 min incubation on a heating block (25° C.), the reactions are stopped by the addition of 10 μL 60% PCA. An aliquot of 100 μL is then transferred to a filter plate pretreated with charcoal and the plate centrifuged at 4000 rpm for 1 minute. The flow through containing the ^3H2O released by the SCD1 desaturation reaction is added to scintillation fluid and the radioactivity measured in a Packard TopCount. The data is analysed to identify the IC50 for test compounds and reference compounds.
The activity was defined in terms of % SCD enzyme activity remaining at the desired concentration of the test compound or as the IC50 concentration.
For orientation: Microsomes from liver hold many membrane-bound enzymes, among them those of drug oxidation.

`Cc1cc(-n2ccc(OCc3ccccc3)cc2=O)oc1C(=O)NCc1ccccc1` [Example 3.19, N-Benzyl-5-(4-(benzyloxy)-2-oxopyridin-1(2H)-yl)-3-methylfuran-2-carboxamide] had a melting point of 191 to 192 °C. In data set [1], half-maximal inhibition (IC50) was put at 5700 nM.

Turning to `Cc1nc(-n2ccccc2=O)sc1C(=O)NCc1ccc(F)cc1` [Example 3.11, N-(4-Fluorobenzyl)-4-methyl-2-(2-oxopyridin-1(2H)-yl)thiazole-5-carboxamide], the melting point is 170 to 172 °C. This molecule registered an IC50 in data set [1] of 230 nM.

`Cc1nc(-n2ccc(OCc3ccccc3)cc2=O)[nH]c1C(=O)NCc1ccccc1` [Example 1.7, N-Benzyl-2-(4-(benzyloxy)-2-oxopyridin-1(2H)-yl)-4-methyl-1H-imidazole-5-carboxamide] displayed a melting point of 183 to 184 °C. The same molecule had an IC50 in data set [1] of 220 nM.

In the case of `Cc1nc(-n2ccc(OCC3CC3)cc2=O)sc1C(=O)NCc1ccccc1` [Example 1.1, N-Benzyl-2-(4-(cyclopropylmethoxy)-2-oxopyridin-1(2H)-yl)-4-methylthiazole-5-carboxamide], the melting point is 218 to 220 °C. It took 400 nM to reach half-maximal inhibition in data set [1] (IC50).

The IC50 is the concentration that gives 50% inhibition. The low end stands for higher potency, the high end for lower potency. A word on the melting point: it is the temperature of the solid-liquid transition.

For the origin of these results see US8501746B2, “Organic compounds” (Xenon Pharmaceuticals Inc., priority 2006, dated 2013).
